Experimental data published in the RepoRT retention time repository.

Experiment: HILIC, HILICON iHILIC-(P) Classic, HILIC, PEEK, 100 × 2.1 mm, 5 µm, 40 °C, 0.15 mL/min, estimated dead time 1.5 min; A: water + 20 mM ammonium carbonate + 5 µM medronic acid; B: 10% water + 90% acetonitrile + 2 mM ammonium carbonate + 0.5 µM medronic acid; gradient (min/%B) 0/95 18/55 19/20 22/20 22.5/95 24/95 26/95
Details: stereoisomer not certain

| SMILES | LC retention time [min] |
| --- | --- |
| Nc1ncnc2c1ncn2C1OC(CO)C(O)C1O (centres undefined) [Adenosine] | 3.83 |
| Nc1ncnc2c1ncn2C1OC(COP(=O)(O)OP(=O)(O)O)C(O)C1O (centres undefined) [ADP] | 12 |
| CC(=O)SCCNC(=O)CCNC(=O)C(O)C(C)(C)COP(=O)(O)OP(=O)(O)OCC1OC(n2cnc3c(N)ncnc32)C(O)C1OP(=O)(O)O (centres undefined) [Acetyl-CoA] | 10 |
| Nc1ncnc2c1ncn2C1OC(COP(=O)(O)O)C(O)C1O (centres undefined) [AMP] | 10.4 |
| Nc1ncnc2c1ncn2C1OC(COP(=O)(O)OP(=O)(O)OP(=O)(O)O)C(O)C1O (centres undefined) [ATP] | 14.6 |
| NC(CCC(=O)NC(CS)C(=O)NCC(=O)O)C(=O)O (centres undefined) [GSH] | 9.58 |
| NC(CCC(=O)NC(CSSCC(NC(=O)CCC(N)C(=O)O)C(=O)NCC(=O)O)C(=O)NCC(=O)O)C(=O)O (centres undefined) [GSSG] | 15.1 |
| CC(C)(COP(=O)(O)OP(=O)(O)OCC1OC(n2cnc3c(N)ncnc32)C(O)C1OP(=O)(O)O)C(O)C(=O)NCCC(=O)NCCS (centres undefined) [CoenzymeA] | 11.6 |
| O=C(CO)C(O)C(O)C(O)COP(=O)(O)O (centres undefined) [Fructose 6-phosphate] | 12.3 |
| NC(=O)CC(N)C(=O)O (centres undefined) [Asparagine] | 10.4 |
| O=P(O)(O)OC1OC(CO)C(O)C(O)C1O (centres undefined) [Glucose-1-phosphate] | 12.3 |
| O=C(O)CCC(=O)C(=O)O [2-Oxoglutaric acid] | 13 |
| O=C(O)C=CC(=O)O [Fumaric Acid] | 12.7 |
| O=P(O)(O)OCC1OC(O)(COP(=O)(O)O)C(O)C1O (centres undefined) [Fructose-1,6-bisphosphate] | 16.3 |
| NC(CC(=O)O)C(=O)O (centres undefined) [Aspartic Acid] | 10.3 |
| O=C(O)CC(O)(CC(=O)O)C(=O)O [Citric acid] | 15.3 |
| NC(N)=NCCCC(N)C(=O)O (centres undefined) [Arginine] | 18.9 |

Further lines, results first:

| LC retention time [min] | SMILES |
| --- | --- |
| 14.6 | C=C(OP(=O)(O)O)C(=O)O [PEP] |
| 18.7 | NCCCCC(N)C(=O)O (centres undefined) [Lysine] |
| 9.88 | NC(CCC(=O)O)C(=O)O (centres undefined) [Glutamic acid] |
| 12 | CC(=O)NC1C(OP(=O)(O)OP(=O)(O)OCC2OC(n3ccc(=O)[nH]c3=O)C(O)C2O)OC(CO)C(O)C1O (centres undefined) [UDP-GlcNAc] |
| 11.2 | O=C(O)CCC(=O)O [Succinic Acid] |
| 10.3 | NC(=O)c1ccc[n+](C2OC(COP(=O)(O)OP(=O)(O)OCC3OC(n4cnc5c(N)ncnc54)C(O)C3O)C(O)C2O)c1 (centres undefined) [NAD] |
| 11.4 | O=C(CO)COP(=O)(O)O [Triose phosphate] |
| 11.1 | O=P(O)(O)OCC(O)CO (centres undefined) [Glycerol-3-phosphate] |
| 11.5 | O=P(O)(O)OCC1OC(O)C(O)C1O (centres undefined) [Pentose-phosphate] |
| 15.9 | O=C(O)CC(C(=O)O)C(O)C(=O)O (centres undefined) [Isocitric acid] |
| 13.7 | O=P(O)(O)OCC1OC(O)C(O)C(O)C1O (centres undefined) [Glucose-6-phosphate] |
| 14.5 | NC(=O)c1ccc[n+](C2OC(COP(=O)(O)OP(=O)(O)OCC3OC(n4cnc5c(N)ncnc54)C(OP(=O)(O)O)C3O)C(O)C2O)c1 (centres undefined) [NADP] |
| 9.88 | NC(=O)C1=CN(C2OC(COP(=O)(O)OP(=O)(O)OCC3OC(n4cnc5c(N)ncnc54)C(O)C3O)C(O)C2O)C=CC1 (centres undefined) [NADH] |
| 16.4 | NC(=O)C1=CN(C2OC(COP(=O)(O)OP(=O)(O)OCC3OC(n4cnc5c(N)ncnc54)C(OP(=O)(O)O)C3O)C(O)C2O)C=CC1 (centres undefined) [NADPH] |
| 11.9 | O=C(O)CC(O)C(=O)O (centres undefined) [Malic Acid] |
| 10.2 | NC(=O)CCC(N)C(=O)O (centres undefined) [Glutamine] |
| 2.68 | CC(O)C(=O)O (centres undefined) [Lactic Acid] |
